Source: patent US20200181284A1, “EPIGENETIC INHIBITORS FOR SENSITIZING HEMATOLOGIC OR OTHER MALIGNANCIES TO GLUCOCORTICOID THERAPY” (UNIVERSITY OF SOUTHERN CALIFORNIA, priority 2017, published 2020)

Tests used:
hGLP = molecular target: T1, hGLP (Homo sapiens, UniProt Q9H9B1); assay: Methylation of HA-hGLP in Cos-7 cells (pan met-K immunoprecipitation/immunoblot); assay type: cell-based, African green monkey; settings: 2 μM, 24 h
T1 construct: expressed in transfected cells; host or cells: Cos-7
Procedure: Cos-7 or A549 cells were seeded on 10-cm dishes the day before transfection. Cells were transiently transfected (where indicated) using Lipofectamine 2000 (Invitrogen) with 5 μg each of the indicated plasmids according to the manufacturer's protocol. […] Protein extracts were incubated with 1 μg of the indicated primary antibodies overnight at 4° C. with shaking. Protein A/G Plus Agarose (Santa Cruz sc-2003) beads were added and the mixture was incubated 2 hr at 4° C. The immunoprecipitates were separated on SDS-PAGE. […] In immunoprecipitation experiments 3% of the input of each sample was analyzed by immunoblot using the antibodies listed. […]

[1] = system: interaction between HP1γ and G9a; assay: Co-immunoprecipitation of HA-hG9a with HP1γ in Cos-7 cells; assay type: cell-based, African green monkey; settings: 2 μM, 24 h
Procedure: Cos-7 or A549 cells were seeded on 10-cm dishes the day before transfection. Cells were transiently transfected (where indicated) using Lipofectamine 2000 (Invitrogen) with 5 μg each of the indicated plasmids according to the manufacturer's protocol. At 48 h after transfection, cells were treated (or not) with dex for the indicated time period, and cell extracts were prepared in RIPA buffer (50 mM Tris-HCl, pH 8, 150 mM NaCl, 1 mM EDTA, 1% NP-40 and 0.25% deoxycholate) supplemented with protease inhibitor tablets (Roche Molecular Biochemicals) and phosphatase inhibitors (1 mM NaF, 1 mM Na3VO4 and 1 mM β-glycerophosphate). Protein extracts were incubated with 1 μg of the indicated primary antibodies overnight at 4° C. with shaking. Protein A/G Plus Agarose (Santa Cruz sc-2003) beads were added and the mixture was incubated 2 hr at 4° C. The immunoprecipitates were separated on SDS-PAGE. […] In immunoprecipitation experiments 3% of the input of each sample was analyzed by immunoblot using the antibodies listed. […]

T1 sequence (Q9H9B1 whole entry): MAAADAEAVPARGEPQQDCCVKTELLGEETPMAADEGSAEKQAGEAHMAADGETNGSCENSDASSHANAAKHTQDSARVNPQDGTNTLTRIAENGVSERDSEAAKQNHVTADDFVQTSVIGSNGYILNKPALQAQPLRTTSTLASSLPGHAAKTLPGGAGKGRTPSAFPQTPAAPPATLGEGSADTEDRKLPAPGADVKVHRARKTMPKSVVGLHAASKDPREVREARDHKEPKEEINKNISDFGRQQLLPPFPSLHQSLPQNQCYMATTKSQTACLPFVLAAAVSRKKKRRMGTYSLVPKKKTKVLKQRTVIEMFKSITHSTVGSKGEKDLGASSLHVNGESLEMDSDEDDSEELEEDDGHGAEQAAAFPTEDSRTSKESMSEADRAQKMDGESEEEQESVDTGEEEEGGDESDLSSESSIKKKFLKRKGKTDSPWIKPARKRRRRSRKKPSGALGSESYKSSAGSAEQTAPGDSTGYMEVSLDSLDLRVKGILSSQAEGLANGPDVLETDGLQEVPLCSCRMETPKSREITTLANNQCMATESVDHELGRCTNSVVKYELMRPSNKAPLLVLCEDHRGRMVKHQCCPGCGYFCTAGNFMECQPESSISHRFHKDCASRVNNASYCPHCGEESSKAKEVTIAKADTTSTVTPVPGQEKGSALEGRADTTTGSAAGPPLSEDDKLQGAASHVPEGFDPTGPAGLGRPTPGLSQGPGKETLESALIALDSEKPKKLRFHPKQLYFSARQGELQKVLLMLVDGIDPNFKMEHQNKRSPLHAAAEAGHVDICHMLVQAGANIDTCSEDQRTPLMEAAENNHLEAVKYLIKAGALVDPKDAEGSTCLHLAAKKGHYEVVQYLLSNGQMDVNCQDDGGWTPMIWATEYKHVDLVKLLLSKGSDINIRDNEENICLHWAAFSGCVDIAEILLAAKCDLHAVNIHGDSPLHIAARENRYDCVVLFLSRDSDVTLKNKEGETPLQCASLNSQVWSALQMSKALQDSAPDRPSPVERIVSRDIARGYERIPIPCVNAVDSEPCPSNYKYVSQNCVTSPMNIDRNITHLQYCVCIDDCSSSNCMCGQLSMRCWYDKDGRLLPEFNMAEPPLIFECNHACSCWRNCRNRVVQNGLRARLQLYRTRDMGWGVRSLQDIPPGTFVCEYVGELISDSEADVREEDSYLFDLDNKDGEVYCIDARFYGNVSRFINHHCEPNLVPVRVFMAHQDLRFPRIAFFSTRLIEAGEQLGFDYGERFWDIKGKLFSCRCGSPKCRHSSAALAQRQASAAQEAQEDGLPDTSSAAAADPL

Row | Structure (SMILES) | GLP methylation in cells (hGLP) | interaction between HP1γ and G9a [1]
1 | COc1cc2c(NC3CCN(C4CCCCC4)CC3)nc(N3CCCN(C(C)C)CC3)nc2cc1OCCCN1CCCCC1 [UNC0646] | reduced | 
2 | COc1cc2c(Nc3ccc(NC(=O)c4ccccc4)cc3)ncnc2cc1OCCCN1CCOCC1 [ZM447439, N-[4-[[6-methoxy-7-(3-morpholin-4-ylpropoxy)quinazolin-4-yl]amino]phenyl]benzamide] |  | increased
